US20090142347A1, “Tissue-Nonspecific Alkaline Phosphatase (TNAP): a Therapeutic Target for Arterial Calcification” (THE BURNHAM INSTITUTE FOR MEDICAL RESEARCH, priority 2004, published 2009)

Legend:
[1] = target: hTNALP D433 (Homo sapiens, UniProt P05186, R450D); experiment: biochemical
[2] = target: hTNALP N168 (Homo sapiens, UniProt P05186, D185N); experiment: biochemical
[3] = target: hTNALP A109 (Homo sapiens, UniProt P05186, G126A); experiment: biochemical
[4] = target: T1, hPLALP H429 (Homo sapiens, UniProt P05187, E451H); experiment: Ki of uncompetitive inhibitors (pNPP substrate); format: biochemical; details: hPLALP mutant H429; read-out: Ki for various inhibitors
T1 construct: made in house; host or cells: COS-7 (given only for the TNAP-Flag constructs)
T1 sequence (P05187 23-506 E451H limits assumed): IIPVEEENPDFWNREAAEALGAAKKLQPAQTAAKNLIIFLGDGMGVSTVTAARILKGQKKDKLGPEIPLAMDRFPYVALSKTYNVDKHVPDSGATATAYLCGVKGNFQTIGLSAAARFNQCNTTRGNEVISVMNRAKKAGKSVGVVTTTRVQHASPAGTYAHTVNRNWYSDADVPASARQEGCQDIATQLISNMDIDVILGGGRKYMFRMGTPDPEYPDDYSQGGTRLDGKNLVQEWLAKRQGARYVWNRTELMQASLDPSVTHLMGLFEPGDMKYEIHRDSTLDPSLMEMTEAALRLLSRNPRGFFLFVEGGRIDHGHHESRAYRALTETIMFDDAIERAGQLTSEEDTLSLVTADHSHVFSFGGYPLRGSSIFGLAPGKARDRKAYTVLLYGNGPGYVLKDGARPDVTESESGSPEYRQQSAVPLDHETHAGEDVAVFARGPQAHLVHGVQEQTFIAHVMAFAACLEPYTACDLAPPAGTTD
Protocol: (§1) In brief, samples of the enzymes were added to microtiter plates coated with M2 anti-FLAG antibody, and saturating activities with the substrate pNPP were measured in 1 M DEA/HCl buffer, pH 9.8, containing 1 mM MgCl2 and 20 .micro.M ZnCl2.

[5] = target: T2, hPLALP D165 (Homo sapiens, UniProt P05187, N187D); experiment: Ki of uncompetitive inhibitors (pNPP substrate); format: biochemical; details: hPLALP mutant D165; read-out: Ki for various inhibitors
T2 construct: made in house; host or cells: COS-7 (given only for the TNAP-Flag constructs)
T2 sequence (P05187 23-506 N187D limits assumed): as the sequence (P05187 23-506 E451H limits assumed) above, with N165D, H429E counted along it
Protocol: as §1

[6] = target: T3, hPLALP (R428, H429) (Homo sapiens, UniProt P05187, D450R/E451H); experiment: Ki of uncompetitive inhibitors (pNPP substrate); format: biochemical; details: hPLALP mutant (R428, H429); read-out: Ki for various inhibitors
T3 construct: made in house; host or cells: COS-7 (given only for the TNAP-Flag constructs)
T3 sequence (P05187 23-506 D450R/E451H limits assumed): as the sequence (P05187 23-506 E451H limits assumed) above, with D428R counted along it
Protocol: as §1

[7] = target: hTNALP A120 (Homo sapiens, UniProt P05186, S137A); experiment: biochemical
hTNALP A120, sequence (P05186 18-501 S137A): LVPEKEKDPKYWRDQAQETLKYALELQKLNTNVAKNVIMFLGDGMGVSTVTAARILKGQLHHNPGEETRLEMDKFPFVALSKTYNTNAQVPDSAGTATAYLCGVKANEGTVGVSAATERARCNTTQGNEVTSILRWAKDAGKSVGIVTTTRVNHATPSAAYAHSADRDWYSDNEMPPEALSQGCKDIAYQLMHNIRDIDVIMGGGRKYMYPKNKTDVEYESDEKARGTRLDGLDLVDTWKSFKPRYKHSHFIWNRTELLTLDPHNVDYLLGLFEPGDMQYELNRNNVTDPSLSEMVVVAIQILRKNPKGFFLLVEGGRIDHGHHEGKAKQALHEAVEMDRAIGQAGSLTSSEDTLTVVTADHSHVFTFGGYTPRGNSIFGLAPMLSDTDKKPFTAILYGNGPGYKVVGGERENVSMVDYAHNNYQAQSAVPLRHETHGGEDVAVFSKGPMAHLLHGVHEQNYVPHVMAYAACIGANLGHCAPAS

[8] = target: hTNALP N120 (Homo sapiens, UniProt P05186, S137N); experiment: biochemical
hTNALP N120, sequence (P05186 18-501 S137N): as the sequence (P05186 18-501 S137A) above, with A120N counted along it

[9] = target: hTNALP S434 (Homo sapiens, UniProt P05186, H451S); experiment: biochemical
hTNALP S434, sequence (P05186 18-501 H451S): as the sequence (P05186 18-501 S137A) above, with A120S, H434S counted along it

[10] = target: hTNALP F108 (Homo sapiens, UniProt P05186, E125F); experiment: biochemical
hTNALP F108, sequence (P05186 18-501 E125F): as the sequence (P05186 18-501 S137A) above, with E108F, A120S counted along it

[11] = target: hTNALP B434 (Homo sapiens, UniProt P05186, H451E); experiment: biochemical
hTNALP B434, sequence (P05186 whole entry H451E): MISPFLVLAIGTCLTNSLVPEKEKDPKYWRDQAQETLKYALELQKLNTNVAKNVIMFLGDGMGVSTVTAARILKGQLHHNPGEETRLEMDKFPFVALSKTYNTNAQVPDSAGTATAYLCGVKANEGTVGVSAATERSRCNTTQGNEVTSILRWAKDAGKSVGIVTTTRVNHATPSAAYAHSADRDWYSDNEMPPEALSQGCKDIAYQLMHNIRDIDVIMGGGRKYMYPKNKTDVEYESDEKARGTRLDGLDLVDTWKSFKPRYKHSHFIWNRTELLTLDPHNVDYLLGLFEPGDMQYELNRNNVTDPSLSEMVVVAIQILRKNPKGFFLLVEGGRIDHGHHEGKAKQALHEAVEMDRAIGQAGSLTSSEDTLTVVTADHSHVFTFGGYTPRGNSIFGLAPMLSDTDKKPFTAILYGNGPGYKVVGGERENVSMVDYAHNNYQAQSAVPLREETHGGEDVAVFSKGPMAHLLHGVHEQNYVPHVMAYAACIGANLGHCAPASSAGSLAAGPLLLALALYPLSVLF

[12] = target: hTNALP Q434 (Homo sapiens, UniProt P05186, H451Q); experiment: biochemical
hTNALP Q434, sequence (P05186 18-501 H451Q): as the sequence (P05186 18-501 S137A) above, with A120S, H434Q counted along it

[13] = target: hTNALP D120 (Homo sapiens, UniProt P05186, S137D); experiment: biochemical
hTNALP D120, sequence (P05186 18-501 S137D): as the sequence (P05186 18-501 S137A) above, with A120D counted along it

[14] = target: hTNALP A433 (Homo sapiens, UniProt P05186, R450A); experiment: biochemical
hTNALP A433, sequence (P05186 18-501 R450A): as the sequence (P05186 18-501 S137A) above, with A120S, R433A counted along it

[15] = target: hTNALP N166 (Homo sapiens, UniProt P05186, D183N); experiment: biochemical
hTNALP N166, sequence (P05186 18-501 D183N): as the sequence (P05186 18-501 S137A) above, with A120S, D166N counted along it

[16] = target: hTNALP A434 (Homo sapiens, UniProt P05186, H451A); experiment: biochemical
hTNALP A434, sequence (P05186 18-501 H451A): as the sequence (P05186 18-501 S137A) above, with A120S, H434A counted along it

[17] = target: hTNALP (F104, Q109) (Homo sapiens, UniProt P05186, E125F/G126Q); experiment: biochemical
hTNALP (F104, Q109), sequence (P05186 whole entry E125F/G126Q): as the sequence (P05186 whole entry H451E) above, with E125F, G126Q, E451H counted along it

[18] = target: hTNALP A371 (Homo sapiens, UniProt P05186, Y388A); experiment: biochemical
hTNALP A371, sequence (P05186 18-501 Y388A): as the sequence (P05186 18-501 S137A) above, with A120S, Y371A counted along it

[19] = target: hTNALP A108 (Homo sapiens, UniProt P05186, E125A); experiment: biochemical
hTNALP A108, sequence (P05186 18-501 E125A): as the sequence (P05186 18-501 S137A) above, with E108A, A120S counted along it

[20] = target: hTNALP G434 (Homo sapiens, UniProt P05186, H451G); experiment: biochemical
hTNALP G434, sequence (P05186 18-501 H451G): as the sequence (P05186 18-501 S137A) above, with A120S, H434G counted along it

[21] = target: T4, chTNALP (Gallus gallus, UniProt Q92058); experiment: Ki of uncompetitive inhibitors (pNPP substrate); format: biochemical, chicken; details: read-out: Ki for various inhibitors
T4 sequence (Q92058 17-498): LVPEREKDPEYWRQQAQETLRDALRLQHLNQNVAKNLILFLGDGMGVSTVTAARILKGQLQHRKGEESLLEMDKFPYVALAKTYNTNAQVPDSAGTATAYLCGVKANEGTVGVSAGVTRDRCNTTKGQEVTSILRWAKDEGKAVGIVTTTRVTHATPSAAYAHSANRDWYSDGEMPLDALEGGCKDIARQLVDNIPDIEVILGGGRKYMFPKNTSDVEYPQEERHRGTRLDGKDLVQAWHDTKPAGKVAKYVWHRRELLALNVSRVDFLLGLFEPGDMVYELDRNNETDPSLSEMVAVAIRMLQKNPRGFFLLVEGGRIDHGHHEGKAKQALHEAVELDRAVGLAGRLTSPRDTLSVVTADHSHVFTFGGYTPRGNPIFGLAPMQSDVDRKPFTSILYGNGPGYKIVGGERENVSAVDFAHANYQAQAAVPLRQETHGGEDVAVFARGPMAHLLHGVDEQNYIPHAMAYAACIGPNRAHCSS
Source text: (See Kozlenkov A, et al., 2002). […] TNAP and PLAP structures were superimposed and the amino acid differences within a 12 Å radius around the catalytic Zn1 ion were pinpointed. The difference between human TNAP and chicken TNAP were also mapped because it is reported that chicken TNAP is much less susceptible to levamisol than is human TNAP. In total, six positions with amino acid differences were found, which could be clustered into two groups. […] In addition, […] and […] were also investigated.

[22] = target: hTNALP A166 (Homo sapiens, UniProt P05186, D183A); experiment: biochemical
hTNALP A166, sequence (P05186 18-501 D183A): as the sequence (P05186 18-501 S137A) above, with A120S, D166A counted along it

[23] = target: hTNALP (Homo sapiens, UniProt P05186); experiment: biochemical
hTNALP, sequence (P05186 18-501): as the sequence (P05186 18-501 S137A) above, with A120S counted along it

[24] = target: hTNALP Q109 (Homo sapiens, UniProt P05186, G126Q); experiment: biochemical
hTNALP Q109, sequence (P05186 18-501 G126Q): as the sequence (P05186 18-501 S137A) above, with G109Q, A120S counted along it

[25] = target: hTNALP A168 (Homo sapiens, UniProt P05186, D185A); experiment: biochemical
hTNALP A168, sequence (P05186 18-501 D185A): as the sequence (P05186 18-501 S137A) above, with A120S, D168A counted along it

hTNALP A109, sequence (P05186 18-501 G126A): as the sequence (P05186 18-501 S137A) above, with G109A, A120S counted along it
hTNALP N168, sequence (P05186 18-501 D185N): as the sequence (P05186 18-501 S137A) above, with A120S, D168N counted along it
hTNALP D433, sequence (P05186 whole entry R450D): as the sequence (P05186 whole entry H451E) above, with R450D, E451H counted along it

Compound	Ki [1] [mM]	Ki [2] [mM]	Ki [3] [mM]	Ki [4] [mM]	Ki [5] [mM]	Ki [6] [mM]	Ki [7] [mM]	Ki [8] [mM]	Ki [9] [mM]	Ki [10] [mM]	Ki [11] [mM]	Ki [12] [mM]	Ki [13] [mM]	Ki [14] [mM]	Ki [15] [mM]	Ki [16] [mM]	Ki [17] [mM]	Ki [18] [mM]	Ki [19] [mM]	Ki [20] [mM]	other results
N[C@@H](Cc1ccccc1)C(=O)O [L-Phe, L-phenylalanine]	23 ± 5	42 ± 6	20 ± 4	0.31 ± 0.03	0.54 ± 0.04	0.35 ± 0.04	24 ± 2	23 ± 8	13 ± 2	3.7 ± 0.5	43 ± 8	9.8 ± 1	34 ± 4	31 ± 3	32 ± 5	21 ± 6	2.1 ± 0.4	65 ± 24	27 ± 4	9.6 ± 1	Ki [21]: 11 ± 0.9 mM; Ki [22]: 24 ± 4 mM; Ki [23]: 19 ± 6 mM; Ki [24]: 4 ± 1.1 mM; Ki [25]: 30 ± 4 mM
N=C(N)NCCCC[C@H](N)C(=O)O [L-hArg, L-homoarginine]	1.5 ± 0.2	1.8 ± 0.1	1.3 ± 0.2	10.7 ± 1.5	59 ± 25	14 ± 1	1.4 ± 0.1	1.3 ± 0.1	1.6 ± 0.1	48 ± 11	6.8 ± 0.5	2 ± 0.1	1.4 ± 0.1	1.6 ± 0.2	1.8 ± 0.1	1.5 ± 0.1	15 ± 2	31 ± 3	14 ± 1	1.6 ± 0.2	Ki [21]: 1.9 ± 0.2 mM; Ki [22]: 1.6 ± 0.3 mM; Ki [23]: 1.4 ± 0.1 mM; Ki [24]: 1.6 ± 0.1 mM; Ki [25]: 1.5 ± 0.3 mM
